Measured values published in US20110300532A1, “CONTROL OF THE TOXICITY OF GOLD NANOPARTICLES” (priority 2009, published 2011).
Values joined by “and” are separate entries in the source; they are usually repeats but may differ in a detail not shown here. Identical values can stand only once. “Also recorded” adds a separate entry of the source. Like-named read-outs stand apart in the source and are kept apart here. Where a SMILES comes first, the peptide text is derived from it. The star is where a group is joined. Cbz = O=C(OCc1ccccc1)*; CH2F = FC*

Columns and labels:
[1] = system: HeLa cells; details: for cell survival: cells pretreated with antioxidant 3 hours, washed, post-treated with 100 μM Au1.4MS 48 hours
Protocol: A) untreated cells. B) cells treated with Au1.4MS for 48 hours. C) cells pretreated with antioxidant/reducing agent for 3 hours, washed and post-treated with Au1.4MS for 48 hours. D) Au1.4MS pre-treated with antioxidant/reducing agent for 3 hours, mixture added to cells for 48 hours. E) cells pre-treated with antioxidant/reducing agent for 3 hours, then added Au1.4MS and incubated for 48 hours. F) Antioxidant/reducing agent mixed with Au1.4MS and mixture immediately added to cells and incubated for 48 hours. G) cells incubated with antioxidant/reducing agent for 48 hours.
HeLa cells were plated in 96-well microtiter plates at initial densities of 2,000 in 100 μL and were incubated for 72 hours before adding reagents. Fresh medium containing nanoparticles and/or antioxidants (reducing agents) was added to each well and cells were incubated for another 48 hours. […] Antioxidants/Reducing agents were freshly prepared by dissolving the powders in H2O to 200 mM and further diluted in fresh cell culture medium to working concentration.

[2] = system: HeLa cells; assay: Cell cycle and DNA content measurement using flow cytometry (propidium iodide); format: cell-based, human
Protocol: The protein p53 controls both the G2/M and the G1 cell cycle checkpoints and mediates reversible growth arrest in apoptotic fibroblasts (cf. M. Agarwal, A. Agarwal, W. Taylor, G. Stark, Proc Natl Acad Sci USA 1995, 92, 8493). To gain insight into the cell cycle progression in the context of Au1.4MS cytotoxicity, applicant measured the cellular DNA content and mitotic index of HeLa cells. […] Cells staining intermediary reside in S phase. When the HeLa cells were treated with staurosporine (curve 2) to trigger apoptosis the relative proportion of cells in G2 phase increased to 50% indicating a G2/M block of the cells. Together with the sub G1 peak and the low fluorescent peak indicating DNA fragments this pattern was typical of apoptosis. […] This is further corroborated by the fact that caspase activation, which is likewise a late event in apoptosis, but not in necrosis, was low in Au1.4MS treated cells and furthermore, that caspase inhibition by Z-VADfmk enhanced cell viability in staurosporine treated (apoptotic) cells, but not in Au1.4MS treated (secondary necrotic) cells (FIG. 4, 5).
Cell cycle and DNA content measurement using flow cytometry. HeLa cells were plated in 6-well plates and incubated for 72 hours before adding nanoparticles. […] 20,000 cells were analysed using FACSCalibur or FACSCanto flow cytometers and CELL-Quest software (Becton-Dickinson).

[3] = system: caspase 3/7; assay: Fluorogenic caspase activity determination (Apo-ONE caspase-3/7 assay); format: cell-based, human
Protocol: To confirm that the cells underwent necrosis instead of apoptosis applicant measured the caspase 3/7 activity (FIG. 4) using the fluorogenic substrate rhodamine 110 bis-(N-CBZ-L-aspartyl-L-glutamyl-L-valyl-aspartic acid amide), Z-DEVD-R110. Caspase 3/7 enzymes cleave carboxy-terminal to the aspartate in the DEVD peptide thus converting the substrate into fluorescent rhodamine. […] Thereafter caspase 3/7 activity declined until the end of the experiment at 48 hours.
Fluorogenic caspase activity determination. […] Cells were rinsed and 30 μL of medium containing 50 μM Au1.4MS was added. Untreated cells served as negative control and cells treated with 0.2 μM staurosporine served as a positive control. Apoptosis was measured using the fluorogenic caspase substrate, Apo-ONE® homogeneous caspase-3/7 assay (Promega) as described by the manufacturer. Briefly, Apo-ONE® stock solution (100fold working concentration) was […] in Apo-One® buffer and 30 μL of this was added to each well and incubated at 23° C. for 3 hours. 50 μL of the clear supernatant was transferred to a black microtiter plate and measured using a Fluorostar plate fluorometer (BMG Labtech, Offenburg, Germany) at excitation wavelength 485 nm and emission wavelength 520 nm.

[4] = system: HeLa cells; assay: Inhibition of apoptosis by caspase inhibitor Z-VAD-fmk (cell survival); format: cell-based, human
Protocol: Apoptosis is predominantly caspase-mediated and can be blocked by Z-VAD-fmk whereas necrosis cannot.
Inhibition of apoptosis. HeLa cells were plated in 96-well microtiter plates at initial densities of 2,000 in 100 μL and were incubated for 72 hours before adding reagents. Cells were left untreated or were pre-treated with the caspase inhibitor Z-VAD-fmk for 3 hours (BACHEM N1510). A stock solution of 100 mM Z-VAD-fmk in DMSO was prepared and kept at −20° C. Working solution was freshly prepared by diluting the stock solution in fresh cell culture medium.

[5] = system: HeLa cells; assay: Flow cytometric determination of oxidative stress (CM-H2DCFDA); format: cell-based, human
Protocol: Applicant also studied the oxidative stress and mitochondrial damage induced by Au1.4MS nanoparticles. […] Applicant used 0.3% H2O2 as a positive control.
Flow cytometric determination of oxidative stress. HeLa cells were plated in 6-well plates at initial densities of 40,000 in 2 mL grown for 72 hours. Fresh medium containing nanoparticles (100 μM Au1.4MS, 1000 μM Au1.1GSH and Au15MS) was added to the cells and incubated for 0, 6, 12, 18, 24, 48 hours. All cell-material combinations were set up in triplicates. After the AuNP incubation, cells were trypsinized and rinsed with PBS. After rinsing cells were suspended in a buffer containing 5-(and-6)-chloromethyl-2′7′-dichlorodihydrofluorescein diacetate acetyl ester (CM-H2DCFDA) (Molecuar Probes/Invitrogen). Cells were incubated for 30 minutes at 37° C. as described by the manufacturer. Shortly, 50 μg CM-H2DCFDA powder was dissolved in 100 μL ethanol as stock solution and was kept in −20° C. For cell assays the stock solution was freshly diluted in PBS to a final working concentration of 2.5 μM. Cells incubated with 0.3% H2O2 for 30 minutes served as positive control. 20,000 cells were analysed using FACSCalibur or FACSCanto flow cytometers and CELL-Quest software (Becton-Dickinson).

N[C@@H](CCC(=O)N[C@@H](CS)C(=O)NCC(=O)O)C(=O)O [GSH, glutathione]
inhibition of the cytotoxicity of 100 μM Au1.4MS [1]: partially inhibit | cell survival ([1]; NAC 3 mM, others 1 mM): 15%

O=C1O[C@H]([C@@H](O)CO)C(O)=C1O [ascorbic acid]
cell survival ([1]; NAC 3 mM, others 1 mM): 6%

CN[C@@H]1C[C@H]2O[C@@](C)([C@@H]1OC)n1c3ccccc3c3c4c(c5c6ccccc6n2c5c31)C(=O)NC4 [staurosporine]
DNA content / cell cycle pattern ([2]; propidium iodide flow cytometry, 100 μM Au1.4MS): hypodiploid peak in DNA content typical of G2/M arrest and apoptosis | relative proportion of cells in G2 phase ([2]; staurosporine treated HeLa cells): 50% | incubation time of peak caspase 3/7 activity ([3]; 0.2 μM staurosporine or 50 μM Au1.4MS): 12 h | Caspase 3/7 activity increase ([3]; 0.2 μM staurosporine, HeLa): 6.5 fold | intracellular caspase 3/7 activity increase over background ([3]; 0.2 μM staurosporine, within 6 hours): 6 fold | cell survival ([4]; staurosporine alone, 48 hours): 47%

O=S(=O)([O-])c1cccc(P(c2ccccc2)c2ccccc2)c1.[Na+] [TPPMS, triphenylphosphine monosulfonate]
increase in intracellular fluorescence (ROS) ([5]; ligand alone, not shown): did not cause an increase in intracellular fluorescence | inhibition of the cytotoxicity of 100 μM Au1.4MS ([1]; HeLa, 48 hours, NAC 3 mM, others 1 mM): partially inhibit | cell survival ([1]; NAC 3 mM, others 1 mM): 11%

COC(=O)C[C@H](NC(=O)[C@H](C)NC(=O)[C@@H](NC(=O)OCc1ccccc1)C(C)C)C(=O)CF [Z-VAD-fmk] (Cbz-Val-Ala-Asp(OMe)-CH2F)
survival of staurosporin-treated HeLa cells after adding Z-VAD-fmk ([4]; 32 μM Z-VAD-fmk, 48 hours): 84% and 83% | survival of staurosporin-treated HeLa cells after adding Z-VAD-fmk ([4]; 500 μM Z-VAD-fmk, 48 hours): 90% | effect of Z-VAD-fmk on survival of Au1.4MS treated cells ([4]; HeLa cells): did not increase the survival; also recorded: did not increase cell survival

CC(=O)N[C@@H](CS)C(=O)O [NAC, N-acetylcysteine]
inhibition of the cytotoxicity of 100 μM Au1.4MS [1]: partially inhibit | cell survival ([1]; NAC 3 mM, others 1 mM): 7%

OO [H2O2]
oxidative stress (intracellular ROS, CM-H2DCFDA fluorescence) ([5]; 0.3% for 30 minutes, positive control): strong oxidative stress; also recorded: strong ROS generation
